This note sets out measurements from patent US7863248B2, “Tyrosinase activity inhibitor and ameliorant for facial blood flow” (Meiji Seika Kaisha, Ltd., priority 2003, dated 2011).

The test system of this test is mushroom-derived tyrosinase. The experiment in a line: Tyrosinase activity inhibition (dopachrome formation from L-dopa, absorbance at 490 nm). The test is classed as biochemical. To be noted: for Inhibitory Rate (%): 37° C., 30 minutes; for tyrosinase inhibitory activity compared with comparative drugs: comparison in words. As to the method:
As test substances, the composition prepared in Example 1 and four types of anthocyanin crystal prepared in Example 2 were used. To a 96-well plate, 40 μl of mushroom-derived tyrosinase (125 unit/ml; dissolved in a 67 mmol/l phosphate buffer solution; […] Sigma), and 40 μl of an inhibitor solution were added. The plate was allowed to stand for 37° C. for 30 minutes. Then, the amount of dopachrome produced was determined by absorbance at 490 nm. Tyrosinase inhibitory activity was expressed as an inhibitory rate obtained by the following equation: Inhibitory Rate (%)=[([…]: absorbance at 490 nm of a control solution • B: absorbance at 490 nm of a control solution (blank solution) • C: absorbance at 490 nm of an anthocyanin solution • D: absorbance at 490 nm of an anthocyanin solution (blank solution).

Take `OC[C@H]1O[C@@H](Oc2ccc(O)cc2)[C@H](O)[C@@H](O)[C@@H]1O` [Arbutin, reference compound]: under “inhibitor concentration 10 mM (2.7 mg/ml)”, the “Inhibitory Rate (%)” value was 10.4%. With `OC[C@H]1O[C@@H](Oc2cc3c(O)cc(O)cc3[o+]c2-c2ccc(O)c(O)c2)[C@H](O)[C@@H](O)[C@@H]1O` [C3G (Example 2), cyanidin-3-glucoside], the “tyrosinase inhibitory activity compared with comparative drugs” value was “tyrosinase inhibitory activity at the same level as that found in comparative drugs such as kojic acid, arbutin”. Further, the “Inhibitory Rate (%)” value (inhibitor concentration 0.2 mM) amounted to 45.0%.

As for `OC[C@H]1O[C@@H](Oc2cc3c(O)cc(O)cc3[o+]c2-c2cc(O)c(O)c(O)c2)[C@H](O)[C@@H](O)[C@@H]1O` [D3G (Example 2), delphinidin-3-glucoside], the “tyrosinase inhibitory activity compared with comparative drugs” value is recorded as “tyrosinase inhibitory activity at the same level as that found in comparative drugs such as kojic acid, arbutin”. For the same molecule, under “inhibitor concentration 0.2 mM”, the “Inhibitory Rate (%)” value was found to be 67.5%. Regarding `CC1O[C@@H](OC[C@H]2OC(Oc3cc4c(O)cc(O)cc4[o+]c3-c3cc(O)c(O)c(O)c3)[C@H](O)C(O)C2O)C(O)C(O)[C@H]1O` (stereo partly shown) [D3R (Example 2), delphinidin-3-rutinoside], the “tyrosinase inhibitory activity compared with comparative drugs” value is “tyrosinase inhibitory activity at the same level as that found in comparative drugs such as kojic acid, arbutin”. In addition, the “Inhibitory Rate (%)” value (inhibitor concentration 0.2 mM) is recorded as 70.1%.

On to `N[C@@H](CCC(=O)N[C@@H](CS)C(=O)NCC(=O)O)C(=O)O` [Glutathione, reference compound], for which, for the setting “inhibitor concentration 0.2 mM”, the “Inhibitory Rate (%)” value is on record as 13.2%. The same measure, in the same setting: as for `O=c1cc(CO)occ1O` [Kojic Acid, reference compound], the figure is 34.7%.

Regarding `N[C@@H](CS)C(=O)O` [L-Cysteine, reference compound], where the note is “inhibitor concentration 0.2 mM”, the “Inhibitory Rate (%)” value is 29.8%.
